Values of other authors, collected in US10568927B2, “Methods and compositions comprising desmopressin in combination with a beta-3-adrenergic receptor agonist” (Serenity Pharmaceuticals, LLC, priority 2013, dated 2020).

Settings: human, in vivo

half-life (known clearance rate): 1.5 to 2.0 h
Compound: NC(=O)CC[C@@H]1NC(=O)[C@H](Cc2ccccc2)NC(=O)[C@H](Cc2ccc(O)cc2)NC(=O)CCSSC[C@@H](C(=O)N2CCC[C@H]2C(=O)N[C@H](CCCN=C(N)N)C(=O)NCC(N)=O)NC(=O)[C@H](CC(N)=O)NC1=O [desmopressin, 1-desamino-8-D-arginine vasopressin]
